Data on six compounds can be found in PMC6127270 (Frontiers in Pharmacology, 2018).

The EC50 is the concentration needed to bring the measured effect to its halfway point. High values mean lower potency in that assay, low ones higher potency in that assay. The term IC50 denotes the concentration that inhibits the measured activity by half. In general, ED50 refers to the midpoint of the dose-response relation. What is called Ki is a measure of affinity in units of concentration, obtained from inhibition or displacement.

One data set has as its target T1, human MOR (Homo sapiens, UniProt P35372).
T1 construct: host or cells: CHO
Kind of data set: [35S]GTPγS binding, CHO-hMOR membranes. Format: biochemical. Particulars: for [35S]GTPγS Binding MOR % stim.: relative to DAMGO. A general note: Binding of GTPγS marks nucleotide exchange on a G protein.

The test system of data set [1] is guinea-pig ileum (GPI) myenteric plexus-longitudinal muscle preparation. Also on record: method as in Lattanzi et al., 2005. As to conditions: values marked c (footnote not given); ref Lattanzi et al., 2005; read-out: Bioassay IC50 GPI; cited from earlier work.
Data set [2] relates to CD-1 mice. Kind of data set: Charcoal meal test (gastrointestinal transit). Particulars: mice; for Inhibition of gastrointestinal transit at highest tested dose: highest doses morphine 8000, 14-OMO 90, POMO […].
Data set [3] can be described thus: Charcoal meal test (gastrointestinal transit). Particulars: male, CD-1, mouse, in vivo, sc.
In data set [4] the test system is mouse vas deferens (MVD) preparation. Further details: method as in Lattanzi et al., 2005. As to conditions: values marked c (footnote not given); ref Lattanzi et al., 2005; read-out: Bioassay IC50 MVD; cited from earlier work.
The next data set addresses T2, human KOR (Homo sapiens, UniProt P41145).
T2 construct: host or cells: CHO
Kind of data set: biochemical. In kind it is biochemical.

Data set [5] concerns CD-1 mice. Particulars: s.c., hot-plate, values marked c (footnote not given), ref Lattanzi et al., 2005; cited from earlier work.
A further data set deals with T3, human DOR (Homo sapiens, UniProt P41143).
T3 construct: host or cells: CHO
Kind of data set: [35S]GTPγS binding, CHO-hDOR membranes. Format: biochemical. As to conditions: for [35S]GTPγS Binding DOR % stim.: relative to DPDPE.

In data set [6] the test system is mouse vas deferens (MVD) preparation. As to conditions: for IC50: read-out: Bioassay IC50 MVD, inhibition of electrically evoked twitch.
For data set [7], the system named is guinea-pig ileum (GPI) myenteric plexus-longitudinal muscle preparation. As to conditions: for IC50: read-out: Bioassay IC50 GPI, inhibition of electrically evoked twitch.
The next data set concerns the target T4, MOR (Rattus norvegicus, UniProt P33535).
T4 construct: Membranes were prepared from Sprague–Dawley rat brains or guinea-pig brains; from tissue; host or cells: Sprague-Dawley rat brain
Put plainly: Competition binding, [3H]DAMGO, rat brain membranes.

In data set [8] the test system is mouse vas deferens (MVD) preparation. Put plainly: tissue or blood. Particulars: read-out: Bioassay IC50 MVD.
In data set [9] the test system is guinea-pig ileum (GPI) myenteric plexus-longitudinal muscle preparation. Put plainly: tissue or blood. As to conditions: Cavia porcellus, read-out: Bioassay IC50 GPI.
The next data set has as its target T5, DOR (Rattus norvegicus, UniProt P33533).
T5 construct: Membranes were prepared from Sprague–Dawley rat brains or guinea-pig brains; from tissue; host or cells: Sprague-Dawley rat brain
Kind of data set: Competition binding, [3H][Ile5,6]deltorphin II, rat brain membranes.

The next data set concerns the target T6, KOR (Cavia porcellus, UniProt P41144).
T6 construct: Membranes were prepared from Sprague–Dawley rat brains or guinea-pig brains; from tissue; host or cells: guinea-pig brain
Put plainly: Competition binding, [3H]U69,593, guinea-pig brain membranes.

The test system of data set [10] is CD-1 mice. Put plainly: Hot-plate assay (acute thermal nociception). In kind it is in vivo, mouse. (In general: Thermal pain tests record how soon the animal reacts.)

Where two headings read alike, the source gives them in different places.

`CO[C@@]12CCC(=O)[C@@H]3Oc4c(O)ccc5c4[C@@]31CCN(C)[C@@H]2C5` [14-OMO, 14-O-methyloxymorphone, reference compound]: at human MOR, a half-maximal response (EC50) required 1.62 ± 0.48 nM and the “[35S]GTPγS Binding MOR % stim.” value came out at 97 ± 6%. Further, in data set [1], the concentration for half-maximal inhibition (IC50) is 2 ± 0.3 nM. In the data set on CD-1 mice [2] (charcoal test, s.c.), the “Inhibition of gastrointestinal transit at highest tested dose” value (“Inhibition … at highest tested dose” below) is 90%. In addition, in [3], it took a dose of 0.037 µmol/kg to reach the 50% effect level (ED50 at 30 min). Also, the concentration for half-maximal inhibition (IC50) in data set [4] is 30.5 ± 5.5 nM. In addition, on human KOR, a half-maximal response (EC50) required 144 ± 32 nM and the “[35S]GTPγS Binding KOR % stim.” value was 65 ± 7%. Moreover, the “Antinociceptive activity AD50 (95% CI)” value in the data set on CD-1 mice [5] is recorded as 53 (48–58)^c μg/kg. Besides, on human DOR, the EC50 was 43.8 ± 11.7 nM and the “[35S]GTPγS Binding DOR % stim.” value is 106 ± 1%.
`C[C@@H](NC(=O)[C@@H](N)Cc1ccc(O)cc1)C(=O)NCC(=O)N(C)[C@@H](Cc1ccccc1)C(=O)NCCO` [DAMGO, [D-Ala^2,N-Me-Phe^4,Gly-ol^5]enkephalin, reference compound]: the “[35S]GTPγS Binding MOR % stim.” value at human MOR is 100%.
Take `CC(C)[C@H](NC(=O)[C@H](CC(=O)O)NC(=O)[C@H](Cc1ccccc1)NC(=O)[C@@H](C)NC(=O)[C@@H](N)Cc1ccc(O)cc1)C(=O)N[C@H](C(=O)NCC(N)=O)C(C)C` [Deltorphin I, deltorphin I, reference compound]: the IC50 in [6] is 0.19 ± 0.03 nM; in data set [7], 1240 ± 132 nM.
On the same counts, the results for `C[C@@H](NC(=O)[C@@H](N)Cc1ccc(O)cc1)C(=O)N[C@@H](Cc1ccccc1)C(=O)NCC(=O)N[C@@H](Cc1ccc(O)cc1)C(=O)N1CCC[C@H]1C(=O)N[C@@H](CO)C(N)=O` [Dermorphin, reference compound] are 18 ± 0.31 nM and 1.3 ± 0.27 nM.
Turning to `CN1CC[C@]23c4c5ccc(O)c4O[C@H]2[C@@H](O)C=C[C@H]3[C@H]1C5` [Morphine, Morphine hydrocloride, reference compound], the “Inhibition … at highest tested dose” value with CD-1 mice [2] (charcoal test, s.c.) is listed as “completely abolishing transit”. Moreover, the 50% effect level in data set [3] (ED50 at 30 min) was put at a dose of 3.8 µmol/kg. For the same compound, in the data set on CD-1 mice [5], the “Antinociceptive activity AD50 (95% CI)” value was 6690 (4468–9348)^c μg/kg.
On to `CN1CC[C@]23c4c5ccc(O)c4O[C@H]2C(=O)CC[C@@]3(OCCCc2ccccc2)[C@H]1C5` [POMO, 14-O-phenylpropyloxymorphone], for which, on human MOR, the concentration giving a half-maximal response (EC50) came out at 0.082 ± 0.017 nM and the “[35S]GTPγS Binding MOR % stim.” value amounted to 100 ± 8%. At human MOR ([35S]GTPγS binding), the “Agonist efficacy at MOR” value was “full efficacy” and the “Fold increase in potency (EC50) than 14-OMO at MOR” value worked out at 20 fold. At MOR, this compound came in with an inhibition constant Ki of 0.073 ± 0.007 nM. On MOR (ratio of Ki values), the “Selectivity DOR/MOR” value was 1.8 and the “Selectivity KOR/MOR” value was determined as 4.1. In addition, in data set [6], the “Fold more potent than 14-OMO as agonist in MVD” value is given as 1000 fold and the “Fold more potent than morphine as agonist in MVD” value was > 50,000 fold. Further, in the data set on CD-1 mice [2] (charcoal test), the “Inhibition of gastrointestinal transit compared with 14-OMO and morphine” value is “fourfold less inhibition”. In addition, in the data set on CD-1 mice [2] (charcoal test, s.c.), the “Inhibition … at highest tested dose” value was 50%. The “Ratio ED50(constipation) vs. AD50(antinociception)” value in the data set with CD-1 mice [2] (s.c.) is 2.43. The compound further gave a median effective dose (ED50) at 30 min in data set [3] of 0.0017 µmol/kg. Besides, the IC50 in data set [8] was 0.03 ± 0.0013 nM. Besides, on human KOR, the “Agonist efficacy at KOR” value is “partial agonism”, the EC50 worked out at 0.38 ± 0.13 nM, the “Fold increase in potency (EC50) than 14-OMO at KOR” value is given as 411 fold and the “[35S]GTPγS Binding KOR % stim.” value was 39 ± 5%. In addition, the IC50 in data set [9] was determined as 1.2 ± 0.21 nM. For the same compound, the Ki at DOR was 0.13 ± 0.02 nM. The same compound showed a Ki on KOR of 0.3 ± 0.01 nM. The “Fold more potent than morphine as agonist in GPI” value in data set [7] is on record as “over 250 fold”. For the same compound, at human DOR, a half-maximal effect (EC50) was put at 0.28 ± 0.14 nM and the “[35S]GTPγS Binding DOR % stim.” value stood at 91 ± 8%. Also, on human DOR ([35S]GTPγS binding), the “Agonist efficacy at DOR” value is recorded as “full efficacy” and the “Fold increase in potency (EC50) than 14-OMO at DOR” value stood at 151 fold. Also, the “Antagonism of antinociception by naloxone” value in the data set on CD-1 mice [10] (POMO 2 nmol/kg s.c., 20 min, naloxone 1 mg/kg s.c., -10 min) is on record as “significantly antagonized”. For the same compound, the “Antagonism of antinociception by naltrindole” value in the data set with CD-1 mice [10] (POMO 2 nmol/kg s.c., 20 min, naltrindole 3 mg/kg s.c., -10 min) is listed as “did not antagonize”. Besides, the “Antagonism of antinociception by nor-BNI” value in the data set on CD-1 mice [10] (POMO 2 nmol/kg s.c., 20 min, nor-BNI 20 mg/kg s.c., -24 h) is “did not antagonize”. Moreover, in the data set on CD-1 mice [10] (hot-plate, mice, s.c.), the “Fold increased antinociceptive potency than 14-OMO” value is “over 70 fold”, the “Fold increased antinociceptive potency than morphine” value is above 9000 fold and the “Time of peak antinociceptive response” value was 20 min. Besides, the “Fold increase in antinociceptive potency than oxymorphone” value with CD-1 mice [10] (hot-plate, mice, s.c., oxymorphone value from Dumitrascuta et al., 2017) was above 1400 fold. Moreover, the AD50 hot-plate test with CD-1 mice [10] (mice, s.c.) was 0.7 nmol/kg. The “Antinociceptive activity AD50 (95% CI)” value in the data set with CD-1 mice [10] (mice, s.c., hot-plate, at peak of action) is 0.70 (0.63–0.77) μg/kg.
